Data: ChEMBL document CHEMBL4725449, “Brain Penetrable Inhibitors of Ceramide Galactosyltransferase for the Treatment of Lysosomal Storage Disorders” (ACS Med Chem Lett, 2020)

Columns and labels:
[1] = biological target: T1, UDP-glucuronosyltransferase 2B7 (Homo sapiens, UniProt P16662); assay: Inhibition of UGT2B7 (unknown origin); type: ADME
T1 sequence (P16662 whole entry): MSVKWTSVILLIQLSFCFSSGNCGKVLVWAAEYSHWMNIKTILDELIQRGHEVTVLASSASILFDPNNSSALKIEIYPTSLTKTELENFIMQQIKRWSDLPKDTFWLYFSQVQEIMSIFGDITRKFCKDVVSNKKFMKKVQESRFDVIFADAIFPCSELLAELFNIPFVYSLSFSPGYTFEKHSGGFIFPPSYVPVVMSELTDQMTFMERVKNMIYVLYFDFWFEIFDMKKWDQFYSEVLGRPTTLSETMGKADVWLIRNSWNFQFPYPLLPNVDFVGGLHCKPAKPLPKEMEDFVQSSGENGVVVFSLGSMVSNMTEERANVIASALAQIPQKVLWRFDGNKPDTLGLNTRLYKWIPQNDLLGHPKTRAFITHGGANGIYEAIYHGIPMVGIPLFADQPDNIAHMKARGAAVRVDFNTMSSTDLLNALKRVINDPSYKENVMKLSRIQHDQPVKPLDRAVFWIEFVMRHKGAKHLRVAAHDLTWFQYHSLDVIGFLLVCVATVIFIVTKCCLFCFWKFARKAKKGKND

[2] = biological target: T2, 2-hydroxyacylsphingosine 1-beta-galactosyltransferase (Mus musculus, UniProt Q64676); assay: Inhibition of mouse UGT8 assessed as redcution in GalCer accumulation
T2 sequence (Q64676 whole entry): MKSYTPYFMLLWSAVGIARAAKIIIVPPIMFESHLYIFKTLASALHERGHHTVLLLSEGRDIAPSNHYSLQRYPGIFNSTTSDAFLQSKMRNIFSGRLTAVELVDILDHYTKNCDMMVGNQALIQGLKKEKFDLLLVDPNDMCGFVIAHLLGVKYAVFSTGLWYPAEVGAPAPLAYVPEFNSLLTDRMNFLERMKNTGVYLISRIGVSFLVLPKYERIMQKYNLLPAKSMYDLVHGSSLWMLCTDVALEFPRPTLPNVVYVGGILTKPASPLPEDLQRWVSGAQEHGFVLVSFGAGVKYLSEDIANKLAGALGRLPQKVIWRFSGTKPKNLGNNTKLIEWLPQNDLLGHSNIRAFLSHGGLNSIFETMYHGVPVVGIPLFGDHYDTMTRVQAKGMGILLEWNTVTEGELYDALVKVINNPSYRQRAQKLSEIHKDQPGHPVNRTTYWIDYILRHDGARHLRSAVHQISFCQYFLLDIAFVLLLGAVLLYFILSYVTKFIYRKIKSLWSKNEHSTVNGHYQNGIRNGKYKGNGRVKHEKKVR

[3] = Thermodynamic solubility of the compound […] at pH 7.4; type: physicochemical; conditions: read-out: Therm_solubility
[4] = Volume of distribution at steady state in C57BL/6 mouse at 1 mg/kg, iv; type: ADME, organism-based; conditions: in vivo, read-out: Vdss
[5] = Ratio of drug concentration in brain to plasma in C57BL/6 mouse measured at 1 hr; type: ADME, organism-based; conditions: read-out: BPR
[6] = Drug uptake in C57BL/6 mouse brain at 3 mg/kg, iv measured at 5 mins; type: ADME, organism-based; conditions: read-out: Drug uptake
[7] = In vivo inhibition of SFT de novo synthesis in po dosed PN14 to PN21 days C57BL/6 mouse brain assessed as reduction in [13C] galactose incorporation into SFT administered twice for 2 days and single dose at day 3 treated 1 hr prior to intraperitoneal injection of [13C] galactose measured after 5 hrs of last dose; type: functional; conditions: C57BL/6, 72 h, time 3 day
[8] = AUC (0 to last) in C57BL/6 mouse at 3 mg/kg, po; type: ADME, organism-based; set-up: time 0 - last, route oral, dose 3 mg/kg; conditions: in vivo
[9] = biological target: T3, 2-hydroxyacylsphingosine 1-beta-galactosyltransferase (Homo sapiens, UniProt Q16880); assay: Inhibition of UGT8 in human OE19 cells assessed as redcution in GalCer accumulation measured after 72 hrs by LC-MS/MS analysis; type: cell-based
T3 sequence (Q16880 whole entry): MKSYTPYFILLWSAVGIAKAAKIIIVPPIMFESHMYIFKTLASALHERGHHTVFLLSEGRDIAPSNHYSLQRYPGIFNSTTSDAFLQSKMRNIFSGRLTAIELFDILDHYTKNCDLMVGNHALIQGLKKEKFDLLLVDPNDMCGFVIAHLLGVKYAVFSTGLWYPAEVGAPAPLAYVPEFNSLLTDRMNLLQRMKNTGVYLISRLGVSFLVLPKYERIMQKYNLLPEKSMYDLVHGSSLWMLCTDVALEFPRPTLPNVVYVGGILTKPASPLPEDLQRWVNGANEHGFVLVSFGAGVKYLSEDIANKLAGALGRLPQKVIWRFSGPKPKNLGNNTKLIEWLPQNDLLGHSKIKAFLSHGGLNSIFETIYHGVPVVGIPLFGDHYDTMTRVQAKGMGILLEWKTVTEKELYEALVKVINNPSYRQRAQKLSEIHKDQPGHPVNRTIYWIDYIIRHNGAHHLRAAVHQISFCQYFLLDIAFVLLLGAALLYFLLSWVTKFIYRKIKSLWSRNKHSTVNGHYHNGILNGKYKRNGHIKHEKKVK

[10] = Volume of distribution at steady state in Beagle dog at 1 mg/kg, iv; type: ADME, organism-based, Canis lupus familiaris; conditions: in vivo, read-out: Vdss
[11] = (§1) In vivo inhibition of SFT de novo synthesis in adult C57BL/6 mouse kidney assessed as reduction in [13C] galactose incorporation into SFT at 10 mg/kg, po via gavage treated with compound for 1 hr prior to intraperitoneal injection of [13C] galactose measured after 5 hrs of compound administration relative to control; type: functional
[12] = Volume of distribution at steady state in Sprague-Dawley rat at 1 mg/kg, iv; type: ADME, organism-based; conditions: in vivo, read-out: Vdss
[13] = (§2) In vivo inhibition of SFT de novo synthesis in PN14 to PN21 days C57BL/6 mouse brain assessed as reduction in [13C] galactose incorporation into SFT at 30 mg/kg, po bid for 2 days and single dose at day 3 treated 1 hr prior to intraperitoneal injection of [13C] galactose measured after 5 hrs of last dose relative to control; type: functional; conditions: C57BL/6, 72 h, time 3 day
[14] = as §2, with “3” for “30”; type: functional; conditions: C57BL/6, 72 h, time 3 day
[15] = Tmax in Sprague-Dawley rat at 3 mg/kg, po; type: ADME, organism-based; conditions: in vivo
[16] = as §2, with “GalCer” for “SFT”, “3” for “30”; type: functional; conditions: C57BL/6, 72 h, time 3 day
[17] = as §1, with “GalCer” for “SFT”, “0.3” for “10”; type: functional
[18] = Cmax in Beagle dog at 3 mg/kg, po; type: ADME, organism-based, Canis lupus familiaris; set-up: route oral, dose 3 mg/kg; conditions: in vivo
[19] = Half life in Beagle dog at 1 mg/kg, iv; type: ADME, organism-based, Canis lupus familiaris; conditions: in vivo
[20] = Tmax in Beagle dog at 3 mg/kg, po; type: ADME, organism-based, Canis lupus familiaris; conditions: in vivo

## CNC(=O)c1csc2c(C(F)(F)F)cc(N3CCC(OC(=O)N[C@@H](C)COC(F)(F)F)CC3)nc12
[1]
  IC50: > 10000 nM
[2]
  IC50: 0.2 nM
[3]
  solubility thermodynamic: < 0.5 µM
[4]
  Vd: 1.64 L/kg
[5]
  Kp at 1 h: 0.46
[6]
  concentration at 5 min: 2.05 µg/mL
[7]
  ED50: < 3 mg/kg
[8]
  AUC(0-t): 0.784 µg·h/mL
[9]
  IC50: 0.2 nM
[10]
  Vd: 3.32 L/kg
[11]
  inhibition in vivo at 10 mg/kg: 95%
[12]
  Vd: 1.52 L/kg
[13]
  inhibition in vivo at 30 mg/kg: 98%
[14]
  inhibition in vivo at 3 mg/kg: 92%
[15]
  Tmax: 0.83 h
[16]
  inhibition in vivo at 3 mg/kg: 90%
[17]
  inhibition in vivo at 0.3 mg/kg: 19%
[18]
  Cmax: 0.693 µg/mL
[19]
  half-life: 13.6 h
[20]
  Tmax: 1.33 h
